Test results from US11224223B2, “Feeding deterrence of pests such as Hemiptera, Lepidoptera and Coleoptera” (BEDOUKIAN RESEARCH, INC., priority 2012, dated 2022).

Legend:
Format in all cases: in vivo
[1] = tested on: brown marmorated stink bugs (BMSB); test: Repellency as feeding deterrence in brown marmorated stink bugs, treated filter paper with green bean; details: compound at 3.5% in a 57% Ethanol:43% water solution; control 38%
Experimental: A test was designed to measure the repellency as feeding deterrence in brown marmorated stink bugs (BMSB). Five replicates of 5 BMSBs were introduced into test arenas, containing one 60 mm×15 mm Petri dish with treated filter papers in which a food source (green bean) was attached, at the start of the test. The small Petri dishes containing the treated filter paper and food source were covered with a fitted Petri dish lid in between observation times, and were removed 5 minutes before each observation time to prevent stink bugs from feeding until sated. The distribution of the BMSBs was observed and documented hourly for 5 hours.

[2] = tested on: sharpshooters; test: Leafhopper repellency on citrus choice assays; details: 3% compound; citrus seedlings; 100 sharpshooters per cage; control 50/50
Excerpt: Leafhopper Repellency on Citrus Choice Assays Citrus seedlings are sprayed with either a 3% solution of repellent chemical in a 5%:95% ETOH:Water or only 5%:95% ETOH:Water as a control. Two seedlings are placed in a screen cage, either a treatment vs control tree or a control vs control tree. 100 sharpshooters are released into each cage. The number of sharpshooters choosing each leaf is counted for both choice tests. The number of sharpshooters choosing each treatment is compared to the control to determine if there is a repellent effect.

[3] = tested on: Leptinotarsa decemlineata-Colorado Potatoe Beetles; test: Choice feeding assay on potato leaf disks; details: 3% compound, larvae, 24 h
Experimental: For choice feeding assays, 3% alcohol solutions of the tested compounds are prepared. Disks (4.0 cm in diameter) are cut from potato leaves and are dipped in the test solutions or alcohol alone as a control. After the complete evaporation of the solvent, the disks are offered to 10 larvae. Control and treated disks are placed at alternate corners in Petri dishes (150 by 20 mm) lined with moistened filter paper (choice test). All dishes are placed in an incubator. Four replicates and 40 larva are used for each chemical. In each replicate, the insects are allowed to feed ad libitum for 24 h at 24 C under a 16:8 (L:D) photoperiod. After 24 h, the remaining uneaten area of each potato leaf disk is measured using a scanner and software. The selective antifeeding rate (%) formula is [(C−T)/(C+T)]×100, and the non-selective antifeeding rate (%) formula is [(C−T)/C)]×100, where C and T are the areas consumed by the control and treated leaf disks, respectively.

[4] = tested on: Dermestid spp.; test: Dermestid beetle feeding damage on silk fabric; details: 3% compound; undyed silk disks; late instar larvae; 1 week
Experimental: Dermestid Beetle Feeding Damage on Silk Fabric
For feeding assays, 3% alcohol solutions of the tested compounds are prepared. Disks (4.0 cm in diameter) of undyed silk fabric are dipped in the test solutions or alcohol alone as a control. After the complete evaporation of the solvent, the disks are offered to 10 late instar larvae. All dishes are placed in an incubator. Four replicates are used for each chemical. After 1 week, the remaining uneaten area of each silk disk is measured using a scanner and software. The selective antifeeding rate (%) formula is [(C−T)/(C+T)]×100, and the non-selective antifeeding rate (%) formula is [(C−T)/C)]×100, where C and T are the areas consumed by the control and treated silk disks, respectively.

SMILES	Repellency averaged over 5 hours [1] [%]	Number of Psyllids Choosing each Treatment: Treated [2]	Number of Psyllids Choosing each Treatment: Untreated [2]	% Repellency [3] [%]	% Repellency [4] [%]
CCCCCC1C(=O)CCC1CC(=O)OCCC (stereo not drawn) [Propyl Dihydrojasmonate]	100	30	70	15	15
CC/C(C)=C/CC/C(C)=C/CC1CCCC1=O (stereo not drawn) [Methyl Apritone]	–	30	70	15	15
